Patent US20100055078A1, “METHODS OF MAKING A TRANSPLANTABLE BONE REPAIR SYSTEM USING MULTIPOTENT STEM CELLS” (The Government of the U.S.A, as represented by the …, priority 2008, published 2010)
Entries after “also recorded” stand apart in the source; their conditions may differ.

How the values were obtained:
Assay type in all cases: cell-based
MC3T3-E1 osteoblasts = test: [3H]-thymidine incorporation into DNA in wounded mineralized cell layers (in vitro fracture model); details: for increase of thymidine incorporation: wounded MC3T3-E1, 24 hour treatment, FGF-2 0.2 ng/ml, TGFβ 2 ng/ml, PGE2; for change in DNA synthesis (thymidine incorporation), in words: wounded MC3T3-E1, within twenty-four hours of treatment
Protocol: (§1) Cell culture: Cloned MC3T3-E1 osteoblasts (Kodama et al., J. Cell. Physiol. 112:89-95, 1992) were maintained in alpha MEM medium (Catalog No. MT15012CV Fisher Scientific, Pittsburgh, Pa.) containing 10% fetal bovine serum (FBS), 1% antibiotic solution and 1% glutamine solution and subcultured every 3 to 4 days. The cells were subcultured by incubating with trypsin for five minutes and resuspending at a concentration of 3×10^5 cells/ml. For experiments, cells were grown in the same medium as above, using multiwell plates (35 mm for microscopy and 22 mm for thymidine uptake studies). Each well contained a round 12 mm glass cover slip. Cultures for microscopy contained a 22 mm diameter coverslip with a 12 mm coverslip on top. After three days, the cells reached confluence and differentiation medium (DM) was added. DM was alpha MEM medium containing 10% FBS, 1% antibiotic solution and 1% glutamine solution, supplemented with ascorbic acid (50 μg/ml) and β-glycerol phosphate (10 mM) to induce mineralization. The cultures were then incubated for 9 more days. Microscopic examination was done at this time, using Von Kossa stain to confirm mineralization of the cultures. A critical defect in the mineralized cell layers was created by removing the 12 mm coverslips under sterile conditions and then incubating the cultures for an additional 24 hours in DM containing 4% FBS with IGF-1 (20 ng/ml), FGF-2 (0.2 ng/ml), PDGF (3 ng/ml), TGFβ (2 ng/ml) or PGE2 (2 μg/ml). At least triplicate independent biological samples in multiple experiments were carried out for data collection.
Tritiated thymidine incorporation into DNA: At the conclusion of the 24 hour incubation, the culture medium was removed and the cells were incubated for 15 minutes at 37° C. in 1 ml PBS containing tritiated thymidine (4 μCi/ml). Following this incubation, the PBS was removed and the cells washed 3 times with ice cold trichloroacetic acid (TCA) followed by ice cold ethanol and allowed to air dry. Then 1 ml of sarkosyl lysis buffer ([…] containing 1% sarkosyl) was added to each well; all the cells were solubilized after 30 minutes. Finally, after mixing the resulting solution with a pipette, radioactivity was counted in a scintillation counter and protein content was measured. The data was calculated and expressed as disintegrations per minute per microgram protein.

[1] = tested on: Wounded Mineralized MC3T3-E1 Cells; test: Total protein content of wounded mineralized cultures (Bio-Rad DC protein assay); details: normalized to the control culture; 24 hours of treatment
Protocol: as §1
Protein assay: Protein concentration was determined by Bio-Rad DC™ protein assay (Bio-Rad, Hercules, Calif.) according to the manufacturer's protocol.

MC3T3-E1 cell monolayers = test: Cell re-growth and migration into the coverslip defect, rhodamine phalloidin microscopy; details: for re-growth of cells into the defect, in words / relative migration: 24 hours after injury; for pattern of re-growth and cell morphology in the defect, in words: FGF-2 0.2 ng/ml, PGE2 10 μg/ml; for relative migration: from wound site to migrating edge
Protocol: as §1, with “([…]).” for “(2 ng/ml) or PGE2 (2 μg/ml).”
Microscopy: At the conclusion of the 24 hour incubation, the remaining 22 mm coverslip containing the regenerating area of the culture was removed. The specimen was rinsed five times in room temperature phosphate buffered saline (PBS) and fixed. Cells were visualized with the F-actin probe rhodamine phalloidin (Invitrogen, Carlsbad, Calif.). After rinsing in distilled water and air drying the samples, the coverslips were mounted on microscope slides using FLUOROMOUNT™ and the cells were examined and photographed. Photomicrographs were made on a Zeiss Axioskop epi-fluorescent microscope using a 40× objective. Migration was measured on the photomicrographs from the site of the wound to the migrating edge using a metric ruler (n=3) for each measurement.

human MSCs = test: Cell migration and growth in the center of a pre-treated collagen sponge; design: key to Cell Growth in Sponge: One positive (+) indicates low cell number visible in the field; two positives (++) indicates a thin layer of cells visible in the field; three positives (+++) indicates many cells visible in the field
MC3T3-E1 cells [2] = test: qRT-PCR gene expression in mineralizing cells treated with growth factor
Protocol: Cell Culture: MC3T3-E1 cells were grown and mineralized essentially as described in Example 1.
RNA Isolation: RNA was isolated using the RNeasy™ Mini kit (Qiagen, Valencia, Calif.) or TriReagent™ (Sigma-Aldrich, St. Louis, Mo.) according to the manufacturer's protocol.
Reverse Transcription: 1.5 μg of RNA was added to 30 μl reverse transcriptase (RT) reaction buffer containing 5 mM MgCl2, 10 mM Tris-HCl (pH 8.3), 50 mM KCl, 1 mM dNTPs, 2.5 μM oligo d(T) primer, 2.5 U/μl of MuLV RT, and 1 U/μl of RNase inhibitor. The RT reaction was incubated at room temperature for 10 min, 42° C. for 30 min, inactivated at 99° C. for 5 min, and cooled at 5° C. for 5 min.
Real-time Quantitative RT-PCR Reaction (qRT-PCR): 2 μl of cDNA from the RT reaction was added to 20 μl real-time quantitative polymerase chain reaction (qRT-PCR) mixture containing 10 μl of 2×SYBR® Green PCR Master Mix (Applied Biosystems, Foster City, Calif.) and 12 pmol oligonucleotide primers. PCR was carried out in a Bio-Rad MY iQ® Single-Color Real-Time PCR Detection System (Bio-Rad, Hercules, Calif.) at 50° C. for 2 min, 95° C. for 10 min to activate the Taq polymerase, followed by 50 amplification cycles, consisting of denaturation at 95° C. for 1 min 40 sec, annealing at 63° C. for 1 min 10 sec, and elongation at 72° C. for 1 min 40 sec. Fluorescence was measured and used for quantitative purposes. At the end of the amplification period, melting curve analysis was performed to confirm the specificity of the amplicon. RNA samples were normalized to a cyclophilin (CPHI) internal standard. Relative quantification of gene expression was calculated by using the 2^−(Ct gene T−Ct CPHI T)−(Ct gene 0 hr−Ct CPHI 0 hr) equation, where “Ct gene T” represents the calculated threshold cycle (Ct) of a time point of each sample other than 0 hr, or each treatment other than control. Relative gene abundance is calculated using 2^(Ct gene T−Ct CPHI T), resulting numbers were then multiplied by 10,000 for better graphical presentation. Primer sequences were previously described (Hughes-Fulford and Gilbertson, FASEB J. 13:S121-127, 1999; Hughes-Fulford et al., Gravit. Space Biol. Bull. 11:51-60, 1998; Tjandrawinata and Hughes-Fulford, Adv. Exp. Med. Biol. 407:163-170, 1997; Hughes-Fulford, Adv. Exp. Med. Biol. 400A:269-278, 1997; Hughes-Fulford and Lewis, Exp. Cell Res. 224:103-109, 1996). All data derived using qRT-PCR was from multiple experiments with triplicate independent biological samples.

[3] = tested on: human mesenchymal stem cells (hMSC); test: Proliferation of mesenchymal stem cells, CyQuant relative cell number; details: of treatment
Protocol: Mesenchymal stem cells were isolated from bone marrow by adding 50 μl ROSETTESEP® human mesenchymal stem cell enrichment cocktail (StemCell Technologies, Vancouver, BC, Canada) to each ml of bone marrow. The mixture was incubated for 20 minutes at room temperature and then diluted 2× with PBS containing 2% FBS and 1 mM EDTA. The diluted sample was layered on FICOLL-PAQUE™ (StemCell Technologies, Vancouver, BC, Canada) and centrifuged at 300×g for 25 minutes. Enriched MSCs were removed from the FICOLL-PAQUE™:plasma interface, washed with PBS containing 2% FBS and 1 mM EDTA, and resuspended in αMEM culture medium.
Isolated MSCs were seeded to 96-well plates. […] 2,000 cells per well were seeded on 96-well plates. […] Relative cell number was obtained with a CYQUANT® Cell Proliferation kit (Invitrogen, Carlsbad, Calif.) according to the manufacturer's protocol.

MC3T3-E1 cells [4] = test: Cell growth on pre-treated nylon ribbons; details: up to 4 days, 0.1 mg/ml fibrinogen, HAHp, 50 ng/ml FGF-2
Protocol: Growth on Nylon Ribbons: 250,000 MC3T3-E1 osteoblast cells were seeded in 12-well plates containing 1 inch by 1 inch nylon ribbons pre-treated with 0.1 mg/ml fibrinogen or 1 mg/ml HA and 3 mg/ml heparin (HAHp) with or without 50 ng/ml FGF-2. Cells were visualized under 10× objective at 1 and 4 days after seeding.

MC3T3-E1 cells [5] = test: Cell proliferation on ECM protein coated wells with FGF-2, CyQuant; details: wells containing ECM proteins and FGF-2
Protocol: Cell Proliferation: Five-hundred MC3T3-E1 osteoblast like cells were plated on a 96 well plate with ECM proteins coated on the bottom of the well. Sextuplet independent samples with and without FGF-2 were each plated in wells and 500 MC3T3-E1 cells were then adhered and grown for 3 days. Cell number was measured using CyQuant assay kit. Medium was changed daily

[6] = 24 hours, FGF-2 5 ng/ml or BMP-2 100 ng/ml, corrected to cyclophilin

CCCCC[C@H](O)/C=C/[C@H]1[C@H](O)CC(=O)[C@@H]1C/C=C\CCCC(=O)O [PGE2, prostaglandin E2, reference compound]
increase of thymidine incorporation (MC3T3-E1 osteoblasts): > 3.3 fold | change in DNA synthesis (thymidine incorporation), in words (MC3T3-E1 osteoblasts): significantly enhanced | Total Protein/Culture [1]: 1.51 | re-growth of cells into the defect, in words (MC3T3-E1 cell monolayers): showed cellular proliferation at the interface of the mature cultures and the defect | pattern of re-growth and cell morphology in the defect, in words (MC3T3-E1 cell monolayers): more linear pattern and formed multiple elongated pseudopodia | relative migration (MC3T3-E1 cell monolayers): 3.2±0.2 mm

insulin-like growth factor-1 [IGF-1]
change in DNA synthesis (thymidine incorporation), in words (MC3T3-E1 osteoblasts): small and unremarkable changes | Total Protein/Culture [1]: 1.19 | re-growth of cells into the defect, in words (MC3T3-E1 cell monolayers): little and unremarkable re-growth

transforming growth factor β [TGFβ]
increase of thymidine incorporation (MC3T3-E1 osteoblasts): more than 2 fold | change in DNA synthesis (thymidine incorporation), in words (MC3T3-E1 osteoblasts): significantly enhanced | Total Protein/Culture [1]: 1.55 | re-growth of cells into the defect, in words (MC3T3-E1 cell monolayers): showed cellular proliferation at the interface of the mature cultures and the defect | relative migration (MC3T3-E1 cell monolayers): 1.8±0.4 mm

fibroblast growth factor-2 [FGF-2]
Cell Growth in Sponge (human MSCs; center of collagen sponge, after four days, 100 ng/ml FGF-2, 0.1 mg/ml fibrinogen, HAHp 0.3% w/w heparin with 1% hyaluronic acid): + | cells observed in the collagen sponge, in words (human MSCs; pre-treated collagen sponge): Some cells were observed | Relative abundance of gene expression: ALP (MC3T3-E1 cells [2]; [6]): 13.39 | Relative abundance of gene expression: BMP-2 (MC3T3-E1 cells [2]; [6]): **0.06 | Relative abundance of gene expression: Collagen Type I (MC3T3-E1 cells [2]; [6]): **678.21 | Relative abundance of gene expression: Fibronectin (MC3T3-E1 cells [2]; [6]): *28432.19 | Relative abundance of gene expression: IGF-1 (MC3T3-E1 cells [2]; [6]): **50.65 | Relative abundance of gene expression: MMP3 (MC3T3-E1 cells [2]; [6]): **4.04 | Relative abundance of gene expression: Noggin (MC3T3-E1 cells [2]; [6]): *1.61 | Relative abundance of gene expression: OC (MC3T3-E1 cells [2]; [6]): **1.38 | Relative abundance of gene expression: RUNX2 (MC3T3-E1 cells [2]; [6]): **674.95 | Relative abundance of gene expression: TGFβ (MC3T3-E1 cells [2]; [6]): **245.40 | Relative abundance of gene expression: VEGFA (MC3T3-E1 cells [2]; [6]): **5132.66 | expression of genes associated with mineralization (col1a1, fn, bmp-2, oc, runx2, noggin), in words (MC3T3-E1 cells [2]; over 24 hours): significantly decreased; also recorded: significantly suppressed | expression of igf-1, in words (MC3T3-E1 cells [2]; over 24 hours): significantly decreased | expression of egr-1, fgf-2, cox-2, tgfβ, mmp3, vegfA and vegfr1, in words (MC3T3-E1 cells [2]; over a 24 hour period): dramatically induced | optimum dose for proliferation [3]: 2.5 to 5 ng/mL | increase of thymidine incorporation (MC3T3-E1 osteoblasts): more than 4.5 fold | change in DNA synthesis (thymidine incorporation), in words (MC3T3-E1 osteoblasts): significantly enhanced | cell growth on nylon ribbon, in words (MC3T3-E1 cells [4]): Little or no cell proliferation | Total Protein/Culture [1]: 1.49 | re-growth of cells into the defect, in words (MC3T3-E1 cell monolayers): showed cellular proliferation at the interface of the mature cultures and the defect | pattern of re-growth and cell morphology in the defect, in words (MC3T3-E1 cell monolayers): rapid coverage of the defect void | relative migration (MC3T3-E1 cell monolayers): 5.4±0.5 mm

fibrinogen
cell growth on nylon ribbon, in words (MC3T3-E1 cells [4]): Little or no cell proliferation

fibronectin
MC3T3-E1 cell proliferation, in words (MC3T3-E1 cells [5]): significantly increased

platelet-derived growth factor [PDGF]
change in DNA synthesis (thymidine incorporation), in words (MC3T3-E1 osteoblasts): small and unremarkable changes | Total Protein/Culture [1]: 1.38 | re-growth of cells into the defect, in words (MC3T3-E1 cell monolayers): little and unremarkable re-growth
